Marks after values point to notes of the source that are not given here.
System: full thickness skin
Assay: Whole genome array of skin gene expression after topical DBP (time course)
Type: in vivo, C57BL/6J mice
Procedure: Mice: C57BL/6J female mice obtained from The Jackson Laboratory were used between 8 and 12 weeks of age.
Treatment: Mice were untreated or treated topically on the dorsal side of each ear with […] of dibutylphthalate (DBP). At the designated time points after treatment, the animals were euthanized and the ears washed with 70% isopropanol. Full thickness skin was obtained from the dorsal side of both ears and placed immediately in liquid nitrogen. The time between euthanasia and placement of both skin samples in liquid nitrogen was less than 1 minute. Each sample for RNA extraction contained two dorsal ear skin samples obtained from a single mouse both of whose ears received the same treatment.
RNA Extraction: While in liquid nitrogen, the skin was pulverized with a motorized mortar and pestle (CryoGrinder), transferred by inversion of the mortar directly into 1.5 ml cryogenic vials (Nalgene) and stored in liquid nitrogen until RNA extraction. Total RNA from both ears was extracted by homogenization (Pro200) in TRIzol Reagent (Invitrogen) with 7.5 μg of RNase-free glycogen added to the mixture, according to the manufacturer's directions. The RNA was purified on a solid phase RNeasy MinElute Cleanup column (Qiagen) and eluted with 17 μL of RNase-free water. The samples were stored at −20° C. until use.
Quantification of RNA: RNA yields were quantified by UV absorption using a NanoDrop NG-1000 spectrophotometer, where 1 AU 260 equals 40 μg RNA/ml. Purity was estimated by the 260 and 280 nm absorbance ratio; values between 1.7 and 2.1 were considered acceptable.
Assessment of RNA Quality: The quality of sample RNA was assessed using a RNA 6000 LABCHIP Kit on an Agilent 2100 Bioanalyzer. The Bioanalyzer determines the integrity/purity of the RNA samples and permits the screening of total and mRNA sample degradation and ribosomal RNA contamination. An RNA 6000 ladder was also loaded on a specified well and used as a reference for data analysis and a built-in quality control measure. The quality and integrity of the RNA was determined through visual inspection of each electropherogram. In general, only samples with a RIN (RNA integrity number) of 7 or greater, as determined by the Bioanalyzer, were used for gene arrays. This quality control analysis was repeated following the labeling procedure to ensure that the probes were efficiently labeled and had the correct size before hybridization to the chips. All samples that were run on genome wide arrays were obtained as independent duplicates from two individual mice.
Microarray Data Interpretation: Gene expression was compared between untreated and treated total RNA samples. “Transition” data, which represent the change in expression level for a given gene, are presented as a “weighted difference.” Changes in gene expression level were considered to be significant when the adjusted p values were less than […]. The “gene expression signature” arbitrarily includes only those genes that were transcribed with a weighted increase of 2.0 or greater, which was sustained over the subsequent time points tested.
The weighted difference is a metric that takes into account both the variability between different time-points and the variability between replicates at the same time-point. The calculations are performed for each time-point transition, i.e., 30 minutes vs. 1 hour, 1 hour vs. 2 hours, etc. There are two steps to the calculation: the calculation of a modified Euclidean difference between the two time-points, and the calculation of the Euclidean difference between the replicates within each time-point. The first measure is an unweighted difference, while the final metric given in the spreadsheet “weights” this difference by taking into account the second measure.
In a Euclidean difference calculation, each data point is considered as a vector in a multi-dimensional space, and the actual straight-line distance between the data points is calculated. […]

[1] = First 15 min after DBP application

## CCCCOC(=O)c1ccccc1C(=O)OCCCC [DBP, dibutylphthalate]
2 hr
  DBP Unique genes, number: 42
  DBP-Induced genes (≧2x Increased Expression), number: 112
  TLR-Induced among DBP-induced genes, number: 70^#
2 hr to 4 hr Transition
  Acot5 Change in Gene Expression (Weighted Difference): 2.191
  Akr1c18 Change in Gene Expression (Weighted Difference): −0.08563
  Areg Change in Gene Expression (Weighted Difference): 3.401
  Atp2c2 Change in Gene Expression (Weighted Difference): −0.002189
  Btg2 Change in Gene Expression (Weighted Difference): 1.009
  Ccr4 Change in Gene Expression (Weighted Difference): 0.03996
  Cdh10 Change in Gene Expression (Weighted Difference): −0.008005
  Cish Change in Gene Expression (Weighted Difference): 0.7204
  Cox17 Change in Gene Expression (Weighted Difference): −0.1255
  Ctgf Change in Gene Expression (Weighted Difference): 2.29
  Cysltr1 Change in Gene Expression (Weighted Difference): −0.8049
  Ddx21 Change in Gene Expression (Weighted Difference): 2.413
  Dlx4 Change in Gene Expression (Weighted Difference): 3.05
  Dusp14 Change in Gene Expression (Weighted Difference): 2.291
  Egr1 Change in Gene Expression (Weighted Difference): 2.348
  Egr2 Change in Gene Expression (Weighted Difference): 0.5934
  Fam115c Change in Gene Expression (Weighted Difference): 2.163
  Fbxo42 Change in Gene Expression (Weighted Difference): 2.267
  Fosl1 Change in Gene Expression (Weighted Difference): 4.432
  Frk Change in Gene Expression (Weighted Difference): −0.0494
  Gart Change in Gene Expression (Weighted Difference): 5.268
  Gbp8 Change in Gene Expression (Weighted Difference): −0.04223
  Gem Change in Gene Expression (Weighted Difference): 1.546
  Gimap7 Change in Gene Expression (Weighted Difference): 0.03205
  Has1 Change in Gene Expression (Weighted Difference): 2.54
  Ier3 Change in Gene Expression (Weighted Difference): 4.521
  Il10 Change in Gene Expression (Weighted Difference): 2.932
  Il10ra Change in Gene Expression (Weighted Difference): 0.1254
  Il20 Change in Gene Expression (Weighted Difference): 2.876
  Irf4 Change in Gene Expression (Weighted Difference): 3.715
  Jun Change in Gene Expression (Weighted Difference): 0.9971
  Junb Change in Gene Expression (Weighted Difference): 0.9119
  Kcnk1 Change in Gene Expression (Weighted Difference): 32.8
  LOC100046066 Change in Gene Expression (Weighted Difference): −0.1464
  LOC100046410 Change in Gene Expression (Weighted Difference): 2.134
  Lcn5 Change in Gene Expression (Weighted Difference): 3.183
  Madcam1 Change in Gene Expression (Weighted Difference): −0.01081
  Maml1 Change in Gene Expression (Weighted Difference): 3.564
  Map3k11 Change in Gene Expression (Weighted Difference): 2.249
  Med17 Change in Gene Expression (Weighted Difference): −2.259E−05
  Mkks Change in Gene Expression (Weighted Difference): −0.2406
  Mndal Change in Gene Expression (Weighted Difference): 0.09548
  Mtap7d1 Change in Gene Expression (Weighted Difference): 6.99
  Myc Change in Gene Expression (Weighted Difference): 1.296
  Myh3 Change in Gene Expression (Weighted Difference): 8.012
  Myl2 Change in Gene Expression (Weighted Difference): 12.2
  N6amt2 Change in Gene Expression (Weighted Difference): −0.02824
  Nedd4l Change in Gene Expression (Weighted Difference): 2.067
  Nr4a1 Change in Gene Expression (Weighted Difference): 4.572
  P2ry1 Change in Gene Expression (Weighted Difference): −0.2494
  Palmd Change in Gene Expression (Weighted Difference): 2.134
  Prf1 Change in Gene Expression (Weighted Difference): −0.1682
  Prss23 Change in Gene Expression (Weighted Difference): 6.983
  Pxmp4 Change in Gene Expression (Weighted Difference): 3.362
  Rai12 Change in Gene Expression (Weighted Difference): 6.683
  Rassf5 Change in Gene Expression (Weighted Difference): 2.519
  Sik1 Change in Gene Expression (Weighted Difference): 1.009
  Slc25a25 Change in Gene Expression (Weighted Difference): 2.285
  Slc39a8 Change in Gene Expression (Weighted Difference): 2.101
  Tiparp Change in Gene Expression (Weighted Difference): 2.281
  Tmed3 Change in Gene Expression (Weighted Difference): −0.1013
  Tmem51 Change in Gene Expression (Weighted Difference): 6.104
  Tnfaip8l1 Change in Gene Expression (Weighted Difference): 2.28
  Tnip1 Change in Gene Expression (Weighted Difference): 3.267
  Tnni1 Change in Gene Expression (Weighted Difference): 3.47
  Tnnt1 Change in Gene Expression (Weighted Difference): 2.946
  Trib1 Change in Gene Expression (Weighted Difference): 2.432
  Zfp36 Change in Gene Expression (Weighted Difference): 2.638
  Zfp326 Change in Gene Expression (Weighted Difference): 2.164
4 hr
  % Shared (DBP-induced genes also TLR-induced): 64%
  DBP Unique genes, number: 13
  DBP-Induced genes (≧2x Increased Expression), number: 36
  TLR-Induced among DBP-induced genes, number: 23^#
[1]
  Acot5 Change in Gene Expression (Weighted Difference): 2.251
  Akr1c18 Change in Gene Expression (Weighted Difference): 3.655
  Atp2c2 Change in Gene Expression (Weighted Difference): 5.815
  Btg2 Change in Gene Expression (Weighted Difference): 61.87
  Ccr4 Change in Gene Expression (Weighted Difference): 2.16
  Cdh10 Change in Gene Expression (Weighted Difference): 2.487
  Cish Change in Gene Expression (Weighted Difference): 2.011
  Cox17 Change in Gene Expression (Weighted Difference): 2.318
  Cysltr1 Change in Gene Expression (Weighted Difference): 7.656
  Egr1 Change in Gene Expression (Weighted Difference): 3.561
  Egr2 Change in Gene Expression (Weighted Difference): 2.003
  Frk Change in Gene Expression (Weighted Difference): 6.498
  Gbp8 Change in Gene Expression (Weighted Difference): 4.073
  Gem Change in Gene Expression (Weighted Difference): 2.491
  Gimap7 Change in Gene Expression (Weighted Difference): 4.789
  Ier3 Change in Gene Expression (Weighted Difference): 5.581
  Il10ra Change in Gene Expression (Weighted Difference): 2.325
  Jun Change in Gene Expression (Weighted Difference): 6.095
  Junb Change in Gene Expression (Weighted Difference): 4.5
  LOC100046066 Change in Gene Expression (Weighted Difference): 2.503
  Madcam1 Change in Gene Expression (Weighted Difference): 4.39
  Med17 Change in Gene Expression (Weighted Difference): 3.949
  Mkks Change in Gene Expression (Weighted Difference): 11.97
  Mndal Change in Gene Expression (Weighted Difference): 2.311
  Myc Change in Gene Expression (Weighted Difference): 24.16
  N6amt2 Change in Gene Expression (Weighted Difference): 3.347
  Nr4a1 Change in Gene Expression (Weighted Difference): 5.48
  P2ry1 Change in Gene Expression (Weighted Difference): 2.279
  Prf1 Change in Gene Expression (Weighted Difference): 7.177
  Sik1 Change in Gene Expression (Weighted Difference): 3.072
  Slc39a8 Change in Gene Expression (Weighted Difference): 3.193
  Tmed3 Change in Gene Expression (Weighted Difference): 2.37
  Zfp36 Change in Gene Expression (Weighted Difference): 4.19
Total
  % Shared (DBP-induced genes also TLR-induced): 64%
  DBP Unique genes, number: 200
  DBP-Induced genes (≧2x Increased Expression), number: 561 (33*)
  TLR-Induced among DBP-induced genes, number: 361 (340^#)

Reference: patent US20150307938A1, “METHOD TO IDENTIFY A NOVEL CLASS OF IMMUNOLOGIC ADJUVANTS” (Lancell, L.L.C., priority 2011, published 2015)
